Test results: a melting point compilation (Tetko et al.)

melting point	SMILES
94 °C	CSc1ncccc1C(=O)Cl
168 °C	CC1=NOC(=O)C1=NNc1ccccc1Cl
276 °C	O=C(Nc1cccc2c1c(S(=O)(=O)O)cc1oc(-c3ccccc3)nc12)c1ccccc1
90 °C	CC(=O)C(CC(=O)c1ccccc1)C(=O)c1ccccc1 (stereo not drawn)
228 °C	Cc1ccc2c(CCl)c(C)ccc2c1CCl
257 °C	CC(C)(C)NC(=O)C1CCC2CC34CCC(CC=C3C=C(O)C=O)C4CCC21C (stereo not drawn)
113 to 114 °C	O=Cc1cc(F)cc2c1OCOC2
69 °C	COC(=O)c1ccc(I)cc1O
57 °C	Cc1ccc(S(=O)(=O)O)c(C)c1
141 °C	CCCCC(NC(=O)OCC1c2ccccc2-c2ccccc21)C(=O)O (stereo not drawn)
123 to 125 °C	CCSC1=NN=C(SCC)NN1
176 to 178 °C	O=C(O)c1cccnc1Cl
218 °C	O=C(O)CNc1ccccc1C(=O)O
179 °C	COc1ccc(-c2ccc(S(=O)(=O)NC(Cc3ccccc3)C(=O)O)cc2)cc1 (stereo not drawn)
68 °C	O=C(OCc1ccccc1)N1CCC(CBr)CC1
245 °C	Nc1c2c(nc3ccccc13)CCCC2O (stereo not drawn)
51.1 °C	CCCCCCCCCCCCCCCCO
183 °C	O=C(O)c1c(O)ccc(F)c1F
101 °C	N#Cc1ccc(N)c(Cl)c1
189 to 191 °C	Cn1c(=O)c(C(N)=NO)cn(-c2ccccc2)c1=O
222 °C	CC=Cc1cc2c(c(=O)o1)C(=O)C(O)C(C)O2 (stereo not drawn)
188 °C	Cc1ccc2c(c1C)CCC1C2CCC2CC(O)CCC21C (stereo not drawn)
295 °C	O=c1[nH]ccc(=S)[nH]1

melting point	SMILES
69 °C	OCC(F)(F)C(F)(F)C(F)(F)C(F)(F)CO
80 °C	N#CC1CN(Cc2ccccc2)CN(Cc2ccccc2)C1
155 °C	Cc1ccc2cc3c(cc2n1)CCC(C)N3C(=O)c1ccccc1 (stereo not drawn)
139 °C	CCOC(O)=C1C=NC2=C(CNN2C)C1=O
298 to 300 °C	CC1(C)C=[N+]([O-])C(C)(C)C=[N+]1[O-]
151 °C	CC12CCC(O)CC1CCC1C2CCC2(C)C1CCC21OCCO1 (stereo not drawn)
117 °C	C=CCNC(=O)C(C(F)(F)F)C(F)(F)F
52.5 °C	CCCCCCCCCCCCCCCCCCOC(=O)CCc1cc(C(C)(C)C)c(O)c(C(C)(C)C)c1
-61.6 °C	CC#CCCCCC
150 °C	COc1nsnc1NS(=O)(=O)c1ccc(N)cc1
74 to 75 °C	O=Cc1ccc2ncccc2c1
2 °C	O=CC1CC=CCC1 (stereo not drawn)
122 to 126 °C	CC1(C)CC(=O)OC(=O)C1
93 to 96 °C	O=C(Cl)c1ccc2snnc2c1
168 to 170 °C	COC(=O)C1Nc2ccccc2C1(C)C (stereo not drawn)
245 °C	COc1cc(C(=O)O)cc(Cl)c1O
165 °C	NNc1ncccc1[N+](=O)[O-]
104 to 106 °C	COC(=O)c1ccc(NC(C)C)c(N)c1
300 to 303 °C	CC1(C)C(=O)N(O)C(C)(C)C(=O)N1O
-30 °C	C=CC(Cl)(Cl)Cl
14.5 °C	COc1ccc(O)c(C=O)c1
213 °C	Nc1ccc2cc(N)ccc2c1
-100 °C	CCC(C)OC (stereo not drawn)

melting point	SMILES
38 °C	Oc1c(F)c(F)cc(F)c1F
147 to 151 °C	NN=C(C(=O)c1ccccc1)c1ccccc1
157 °C	N#CN=C(Oc1ccccc1)Oc1ccccc1
223 °C	Nc1ccc2c(C(F)(F)F)cc(=O)oc2c1
220 °C	CCN1CCN(c2cc3c(cc2F)c(=O)c(C(=O)O)cn3C2CC2)CC1
256 to 258 °C	NC(CC(F)(F)F)C(=O)O (stereo not drawn)
65 °C	Cc1ccc(N=C=S)c([N+](=O)[O-])c1
141 to 143 °C	CC(=O)Nc1ccc(C(F)(F)F)cc1N
255 °C	COc1ccc(-c2csc(/C(C#N)=N\Nc3ccncc3)n2)cc1
45.5 to 46.5 °C	C=CCOc1cccc(O)c1C(C)=O
184 °C	O=C(O)/C(=C/c1ccccc1[N+](=O)[O-])c1ccc([N+](=O)[O-])cc1
130 °C	COc1cccc2oc(-c3ccccc3)cc(=O)c12
129 °C	C=NCC#N
113 to 115 °C	CC(=O)N(c1ccccc1)c1nc(CCl)cs1
190 to 195 °C	O=[N+]([O-])c1ccc2c(c1)OCCOCCOc1ccccc1OCCOCCO2
104 to 107 °C	O=C1c2ccc([N+](=O)[O-])cc2C(=O)N1CCCBr
41.5 °C	CCSC(=O)COc1ccc(Cl)cc1C
95 °C	CCOC(OCC)c1cccc2c(Br)ccc([N+](=O)[O-])c12
60.5 to 61 °C	O=[N+]([O-])c1ccccc1/C=C(/Cl)c1ccccn1
85 °C	COc1ccc(CO)cc1OCc1ccccc1
171 °C	Cc1onc2c(-c3ccc(Cl)cc3)nnc(-c3ccccc3)c12
270 °C	NS(=O)(=O)c1cc2c(cc1Cl)NC(C(Cl)Cl)NS2(=O)=O (stereo not drawn)
198 °C	CN1C(C(=O)Nc2ccccn2)=C(O)c2ccccc2S1(=O)=O

melting point	SMILES
144 to 145 °C	O=S(=O)(NC(=S)Nc1ccccc1)c1ccccc1
165 to 167 °C	Cc1ccc(N=Nc2ccc(N(C)C)cc2)cc1
127 to 128 °C	O=C(Cl)c1ccc(-n2cccn2)cc1
169 °C	O=Cc1ccc(C(=O)O)s1
240 to 241 °C	Cn1c(=O)n(-c2cccc(Cl)c2)c(=O)c2c3c(sc21)CCCC3
41 °C	Oc1cc(F)c(F)cc1F
30 °C	ICCCCCCCCCCI
35.5 °C	Cc1cc(C)n(C)n1
156 to 158 °C	O=Nc1ccc2ccccc2c1O
167 to 169 °C	Cn1ccc2cc([N+](=O)[O-])ccc21
206 to 208 °C	Clc1ccc(Cc2c(N=Cc3ccc4c(c3)OCO4)n[nH]c2N=Cc2ccc3c(c2)OCO3)cc1
201 to 202 °C	Cc1c(C(=O)O)cnn1-c1ccc(Cl)cc1
166 °C	O=[N+]([O-])c1ccc(O)c2ccccc12
152 °C	NC(=O)c1ccc(Cl)c([N+](=O)[O-])c1
252 °C	Cc1c(Cl)cc(-c2ccc(=O)[nH]n2)cc1Cl
139 to 145 °C	CC(OC(=O)c1ccc([N+](=O)[O-])cc1)c1cccc(C(C)OC(=O)c2ccc([N+](=O)[O-])cc2)c1 (stereo not drawn)
221 °C	CC12CCC(C(=O)OC1=O)C2(C)C (stereo not drawn)
83 to 84 °C	CCOC(=O)CCC(C)C1CCC2C3C=CC4CC(OC(C)=O)CCC4(C)C3CC(OC(C)=O)C12C (stereo not drawn)
214 to 216 °C	O=C(O)c1cscc1S(=O)(=O)c1ccc(Cl)cc1
160 °C	COc1ccc(C2Nn3c(nnc3-c3ccccc3)S2)cc1 (stereo not drawn)
118 to 119 °C	CN(C)c1nc(-c2cccs2)cc(C(F)(F)F)c1C#N
123 to 126 °C	CC1=CC(=O)C(C)=CC1=O
127 to 129 °C	Cc1nc(-c2ccccn2)nc(Cl)c1Cl

melting point	SMILES
2 °C	CCCCCCC(=O)CCCC
205 to 208 °C	N#Cc1c(N)oc(-c2ccccc2)c1-c1ccccc1
82 to 84 °C	N#CCC(=O)c1ccc(OC(F)(F)F)cc1
224 °C	Nc1nnc(C(F)(F)F)s1
235 °C	O=C1C=C(NCc2ccc([N+](=O)[O-])cc2)C(=O)c2ccccc21
173 °C	N#CC1(C#N)C2COC(C3=C2CCCC3)C1(C#N)C#N (stereo not drawn)
63 to 65 °C	O=Cc1cccc(N2CCCC2)n1
163 °C	NC(=S)c1ccno1
87.5 °C	Nc1c(Br)cccc1Br
106 °C	C=C(C(=O)O)c1ccccc1
151 to 152 °C	COc1ccc(C=C2N=C(c3ccccc3)OC2=O)cc1
92 °C	COc1ccc(C(C)=O)cc1F
117 to 118 °C	Cc1nc2ccccn2c1C=O
110 to 113 °C	Cc1nc(CC(=O)O)c(C)s1
49 °C	N#Cc1sccc1Br
111 °C	COC(=O)c1ccc(OC)c([N+](=O)[O-])c1
77 to 77.5 °C	Brc1ccc(Oc2c(Br)cccc2Br)cc1
255 °C	N#C/C(=N\Nc1ccc(O)cc1)c1nc2ccccc2[nH]1
120 °C	O=C1CN(C(=O)OCc2ccccc2)CCN1
37 to 40 °C	Cc1ccc(Cl)c(N)c1Cl
109 °C	CC1(C)OCC(C2OC3OC(C)(C)OC3C2O)O1 (stereo not drawn)
184 °C	O=C(O)CCOc1ccc2c(c1)[nH]c1ccccc12
54 to 59 °C	COc1ccc(C(C)(C)c2ccc(OC)cc2)cc1

SMILES	melting point
CCS(=O)(=O)C(C)(C)S(=O)(=O)CC	126 °C
CC1(C)C(C=C(Cl)C(F)(F)F)C1C(=O)OC(C#N)c1cccc(Oc2ccccc2)c1 (stereo not drawn)	55.6 °C
CCOP(=O)(OCC)On1nnc2ccccc2c1=O	74 °C
BrC(Br)C(Br)(Br)Br	56.5 °C
O=C1CCCCC1Cl (stereo not drawn)	23 °C
O=C1C=C2C(=CCOC2O)O1 (stereo not drawn)	111 °C
CCC(=O)Cl	-94 °C
c1ccc(C2CCCNC2)cc1 (stereo not drawn)	14.5 °C
CC(C)(C#N)C#N	31.5 °C
ClC1=C(Cl)C2(Cl)C3C4OC4C(Cl)C3C1(Cl)C2(Cl)Cl (stereo not drawn)	160 °C
c1ccc2c(c1)ccc1ncccc12	94 °C
O=[N+]([O-])c1ccccc1CBr	47 °C
CC12CCC3C4CCC(=O)C=C4CCC3C1CCC2O (stereo not drawn)	122 °C
CNCC(O)c1ccccc1 (racemic)	74 to 76 °C
N#CC(c1ccc(Cl)cc1)N1CCOCC1 (stereo not drawn)	76 to 77 °C
Cc1ccccc1[N+](=O)[O-]	-4 °C
CCC(O)C(CC(C)N(C)C)(c1ccccc1)c1ccccc1 (stereo not drawn)	127 °C
COc1ccc(CC2c3cc(OC)c(OC)cc3CCN2C)cc1OC (stereo not drawn)	89 °C
